Laboratory results reported in PubChem BioAssay AID2060503 (Molecular Pharmacology Branch, DTP, NCI, 2025).

Test system: 817829-284-R-J1-PDC complex spheroids, viability
Experiment: Anticancer human tumor 817829-284-R-J1-PDC patient-derived colon adenocarcinoma cell line growth inhibition [GQUAD]
Conditions: for IC50: curve of first compound; for viability, T/C: stronger effect = lower value
Summary of the method: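 Multi-cell-type spheroids of tumor cells with HUVEC and mesenchymal stem cells, treated with drug combinations. Concentrations descend in half-log steps from near clinical Cmax, or from 10 microM where Cmax is unknown; viability read-out.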

[1] = second compound 0.0316 µM, first compound 0.0316 µM
[2] = second compound 0.0316 µM, first compound 0.1 µM
[3] = second compound 0.0316 µM, first compound 0.316 µM
[4] = second compound 0.0316 µM, first compound 1 µM
[5] = second compound 0.0316 µM, first compound 3.16 µM
[6] = second compound 0.0316 µM, first compound 10 µM
[7] = second compound 0.1 µM, first compound 0.0316 µM
[8] = second compound 0.1 µM, first compound 0.1 µM
[9] = second compound 0.1 µM, first compound 0.316 µM
[10] = second compound 0.1 µM, first compound 1 µM
[11] = second compound 0.1 µM, first compound 3.16 µM
[12] = second compound 0.1 µM, first compound 10 µM
[13] = second compound 0.316 µM, first compound 0.0316 µM
[14] = second compound 0.316 µM, first compound 0.1 µM
[15] = second compound 0.316 µM, first compound 0.316 µM
[16] = second compound 0.316 µM, first compound 1 µM
[17] = second compound 0.316 µM, first compound 3.16 µM
[18] = second compound 0.316 µM, first compound 10 µM
[19] = second compound 1 µM, first compound 0.0316 µM
[20] = second compound 1 µM, first compound 0.1 µM
[21] = second compound 1 µM, first compound 0.316 µM
[22] = second compound 1 µM, first compound 1 µM
[23] = second compound 1 µM, first compound 3.16 µM
[24] = second compound 1 µM, first compound 10 µM
[25] = second compound 3.16 µM, first compound 0.0316 µM
[26] = second compound 3.16 µM, first compound 0.1 µM
[27] = second compound 3.16 µM, first compound 0.316 µM
[28] = second compound 3.16 µM, first compound 1 µM
[29] = second compound 3.16 µM, first compound 3.16 µM
[30] = second compound 3.16 µM, first compound 10 µM
[31] = second compound 10 µM, first compound 0.0316 µM
[32] = second compound 10 µM, first compound 0.1 µM
[33] = second compound 10 µM, first compound 0.316 µM
[34] = second compound 10 µM, first compound 1 µM
[35] = second compound 10 µM, first compound 3.16 µM
[36] = second compound 10 µM, first compound 10 µM
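Note: spheroids exposed to agents for 7 days before readout.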
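Throughout, for viability, T/C: percent viability relative to DMSO vehicle control taken as 100%.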

`COc1cc(C2c3cc4c(cc3C(OC3OC5COC(C)OC5C(O)C3O)C3COC(=O)C23)OCO4)cc(OC)c1O` (stereo unspecified) + Cc1cnc(CNC(=O)c2c(=O)c3ccc(N4CCCN(C)CC4)nc3n3c2sc2ccccc23)cn1 was tested, and the IC50 (second compound 0.0316 µM) was 0.0393 µM, the IC50 (second compound 0.1 µM) was < 0.0316 µM and the IC50 (second compound 0.316 µM) was < 0.0316 µM. The IC50 (second compound 1 µM) was < 0.0316 µM, the IC50 (second compound 3.16 µM) was < 0.0316 µM and the IC50 (second compound 10 µM) was < 0.0316 µM. The viability, T/C [1] was 57.3%, the viability, T/C [2] was 30.7% and the viability, T/C [3] was 35.5%. It also gave a viability, T/C [4] of 23.1%, a viability, T/C [5] of 15.1% and a viability, T/C [6] of 7.07%. The viability, T/C [7] was 30.4%, the viability, T/C [8] was 31.3% and the viability, T/C [9] was 22.9%. It also gave a viability, T/C [10] of 24.6%, a viability, T/C [11] of 15% and a viability, T/C [12] of 6.35%. For the same compound, the viability, T/C [13] was 22.4%, the viability, T/C [14] was 27.7% and the viability, T/C [15] was 23.2%. It also gave a viability, T/C [16] of 21%, a viability, T/C [17] of 11.9% and a viability, T/C [18] of 7.02%. It also gave a viability, T/C [19] of 18.7%, a viability, T/C [20] of 21.1% and a viability, T/C [21] of 18.8%. It also gave a viability, T/C [22] of 22.5%, a viability, T/C [23] of 12.2% and a viability, T/C [24] of 5.25%. For the same compound, the viability, T/C [25] was 19.6%, the viability, T/C [26] was 22.5% and the viability, T/C [27] was 19.5%. For the same compound, the viability, T/C [28] was 15.9%, the viability, T/C [29] was 9.99% and the viability, T/C [30] was 5.08%. For the same compound, the viability, T/C [31] was 0.08%, the viability, T/C [32] was 0.12% and the viability, T/C [33] was 0.15%. The viability, T/C [34] was 0.11%, the viability, T/C [35] was 0.15% and the viability, T/C [36] was 0.14%.

With `COc1cccc2c1C(=O)c1c(O)c3c(c(O)c1C2=O)CC(O)(C(=O)CO)CC3OC1CC(N)C(O)C(C)O1` (stereo unspecified) + Cc1cnc(CNC(=O)c2c(=O)c3ccc(N4CCCN(C)CC4)nc3n3c2sc2ccccc23)cn1 the IC50 (second compound 0.0316 µM) was < 0.0316 µM, the IC50 (second compound 0.1 µM) was < 0.0316 µM and the IC50 (second compound 0.316 µM) was < 0.0316 µM. For the same compound, the IC50 (second compound 1 µM) was < 0.0316 µM, the IC50 (second compound 3.16 µM) was < 0.0316 µM and the IC50 (second compound 10 µM) was < 0.0316 µM. The viability, T/C [1] was 50.1%, the viability, T/C [2] was 28.6% and the viability, T/C [3] was 25.7%. For the same compound, the viability, T/C [4] was 7.54%, the viability, T/C [5] was 0.23% and the viability, T/C [6] was 0.16%. For the same compound, the viability, T/C [7] was 27.2%, the viability, T/C [8] was 26.8% and the viability, T/C [9] was 17.2%. The viability, T/C [10] was 9.6%, the viability, T/C [11] was 0.27% and the viability, T/C [12] was 0.19%. It also gave a viability, T/C [13] of 21.8%, a viability, T/C [14] of 24.4% and a viability, T/C [15] of 18.2%. It also gave a viability, T/C [16] of 6.76%, a viability, T/C [17] of 0.15% and a viability, T/C [18] of 0.22%. For the same compound, the viability, T/C [19] was 19.9%, the viability, T/C [20] was 21.5% and the viability, T/C [21] was 18.9%. The viability, T/C [22] was 8.23%, the viability, T/C [23] was 0.07% and the viability, T/C [24] was 0.08%. It also gave a viability, T/C [25] of 17.8%, a viability, T/C [26] of 16.4% and a viability, T/C [27] of 13.9%. For the same compound, the viability, T/C [28] was 7.35%, the viability, T/C [29] was 0.11% and the viability, T/C [30] was 0.11%. For the same compound, the viability, T/C [31] was 0.07%, the viability, T/C [32] was 0.12% and the viability, T/C [33] was 0.16%. The viability, T/C [34] was 0.12%, the viability, T/C [35] was 0.19% and the viability, T/C [36] was 0.18%.

In the case of `O=c1[nH]cc(F)c(=O)[nH]1` + Cc1cnc(CNC(=O)c2c(=O)c3ccc(N4CCCN(C)CC4)nc3n3c2sc2ccccc23)cn1, the IC50 (second compound 0.0316 µM) is reported as 0.799 µM, the IC50 (second compound 0.1 µM) is reported as < 0.0316 µM and the IC50 (second compound 0.316 µM) is reported as < 0.0316 µM. The IC50 (second compound 1 µM) was < 0.0316 µM, the IC50 (second compound 3.16 µM) was < 0.0316 µM and the IC50 (second compound 10 µM) was < 0.0316 µM. It also gave a viability, T/C [1] of 91.4%, a viability, T/C [2] of 75.3% and a viability, T/C [3] of 77.6%. The viability, T/C [4] was 43%, the viability, T/C [5] was 37.6% and the viability, T/C [6] was 33%. The viability, T/C [7] was 29.9%, the viability, T/C [8] was 41.6% and the viability, T/C [9] was 34.2%. It also gave a viability, T/C [10] of 35.5%, a viability, T/C [11] of 29.1% and a viability, T/C [12] of 25.7%. It also gave a viability, T/C [13] of 25.3%, a viability, T/C [14] of 27.6% and a viability, T/C [15] of 32.9%. For the same compound, the viability, T/C [16] was 26.8%, the viability, T/C [17] was 26.7% and the viability, T/C [18] was 23.3%. It also gave a viability, T/C [19] of 22.8%, a viability, T/C [20] of 22.4% and a viability, T/C [21] of 23.5%. For the same compound, the viability, T/C [22] was 24.8%, the viability, T/C [23] was 22.9% and the viability, T/C [24] was 21.4%. For the same compound, the viability, T/C [25] was 21.8%, the viability, T/C [26] was 21.2% and the viability, T/C [27] was 19.6%. It also gave a viability, T/C [28] of 19.5%, a viability, T/C [29] of 20.1% and a viability, T/C [30] of 18%. The viability, T/C [31] was 0.08%, the viability, T/C [32] was 0.13% and the viability, T/C [33] was 0.17%. For the same compound, the viability, T/C [34] was 0.14%, the viability, T/C [35] was 0.19% and the viability, T/C [36] was 0.16%.
